Consider 11 compounds from patent US10239894B2, “Inhibitors of indoleamine 2,3-dioxygenase” (GLAXOSMITHKLINE INTELLECTUAL PROPERTY DEVELOPMENT LIMITED, priority 2015, dated 2019).

Structures are written as SMILES.

One data set concerns the target T1, Recombinant human IDO1 (Homo sapiens, UniProt P14902).
T1 construct: made in house; host or cells: E. coli
The data set can be described thus: IDOi enzyme assay (absorbance readout of NFK formation at 320 nm). Format: biochemical. The conditions noted are these: recombinant human IDO1, 2 mM D-tryptophan, 30 min preincubation; read-out: pXC50 enzyme (converted).

The target in data set [1] is T2, indoleamine 2, 3-dioxygenase (IDO1) in IFN-γ stimulated HeLa cells (Homo sapiens, UniProt P14902).
T2 construct: host or cells: HeLa cells stimulated with IFN-γ
The data set can be described thus: HeLa IDOi assay (kynurenine by mass spectrometry). Conditions: HeLa cells stimulated with IFN-γ, 2 days, kynurenine by MS; read-out: pXC50 HeLa (converted). Format: cell-based.

Data set [2] deals with T3, indoleamine 2, 3-dioxygenase (IDO1) in IFN-γ/LPS stimulated human peripheral blood mononuclear cells (PBMC) (Homo sapiens, UniProt P14902).
T3 construct: host or cells: human PBMC stimulated with IFN-γ and LPS
The data set can be described thus: PBMC IDOi assay (kynurenine by mass spectrometry). Format: cell-based. Conditions: human PBMC stimulated with IFN-γ and LPS, 2 days, kynurenine by MS; read-out: pXC50 PBMC (converted).

The nature of data set [3]: In vivo pharmacokinetics, rat clearance. Conditions: plasma, intravenous, male nonfasted Wistar Han rats, doses 1 mg/kg i.v. and 5 mg/kg p.o. The method, then:
In vivo pharmacokinetic methods, rat: Male nonfasted Wistar Han rats (n=3) received test article at doses of 1 mg/kg i.v. (1 mL/kg) and 5 mg/kg p.o. (5 ml/kg) formulated in a DMSO/solutol/10% hydroxyl-propyl β cyclodextrin (10:10:80) dosing vehicle. For all animals,food and water was provided ad libitum. Blood samples were withdrawn from a surgically-implanted venous cannula at timed intervals for 24 h after dose administration, treated with EDTA, and centrifuged to harvest plasma for LC/MS/MS analysis. Plasma concentration-time data for individual rats were analyzed by noncompartmental analysis using the Phoenix™ WinNonlin® (version 6.2.1, Pharsight Corp., St. Louis, Mo.) software to generate pharmacokinetic parameter estimates.

The target in data set [4] is T4, indoleamine 2, 3-dioxygenase (IDO1) in IFN-γ/LPS stimulated human monocyte-derived dendritic cells (MDDC) (Homo sapiens, UniProt P14902).
T4 construct: host or cells: human monocyte-derived dendritic cells stimulated with IFN-γ and LPS
The data set can be described thus: IDOi MDDC assay (kynurenine by mass spectrometry). Conditions: human MDDC stimulated with IFN-γ and LPS, 2 days, kynurenine by MS; read-out: pXC50 MDDC (converted). Format: cell-based.

A short description of data set [5]: In vivo pharmacokinetics, mouse clearance.

T4 sequence (P14902 whole entry): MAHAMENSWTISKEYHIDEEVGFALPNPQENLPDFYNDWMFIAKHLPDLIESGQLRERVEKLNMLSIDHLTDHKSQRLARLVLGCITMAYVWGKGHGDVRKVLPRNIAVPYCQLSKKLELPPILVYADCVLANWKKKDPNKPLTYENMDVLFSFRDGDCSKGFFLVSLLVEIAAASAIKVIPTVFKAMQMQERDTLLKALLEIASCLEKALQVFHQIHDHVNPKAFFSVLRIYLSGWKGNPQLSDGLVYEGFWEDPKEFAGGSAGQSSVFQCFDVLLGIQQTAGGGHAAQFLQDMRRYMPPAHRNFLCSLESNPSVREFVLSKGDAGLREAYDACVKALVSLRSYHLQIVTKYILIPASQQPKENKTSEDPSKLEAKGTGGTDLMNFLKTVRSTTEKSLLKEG
T1 sequence (P14902 whole entry): as above
T3 sequence (P14902 whole entry): as above
T2 sequence (P14902 whole entry): as above

As for `O=C(CN1CCOB2OCc3cccc1c32)NCCNc1nonc1C(=NO)Nc1ccc(F)c(Br)c1` [Compound 7], the IC50 was 100 nM at Recombinant human IDO1, 631 nM in data set [1] and 398 nM in data set [2]. For the same compound, in data set [3], the clearance came to 180 mL/min/kg.

Regarding `O=C(NCCNc1nonc1C(=NO)Nc1ccc(F)c(Br)c1)c1cccc2c1B(O)OC=C2` [Compound 2, N-(2-((4-(N-(3-Bromo-4-fluorophenyl)-N′-hydroxycarbamimidoyl)-1,2,5-oxadiazol-3-yl)amino)ethyl)-1-hydroxy-1H-benzo[c][1,2]oxaborinine-8-carboxamide], the IC50 at Recombinant human IDO1 is 200 nM; in data set [1] it was 631 nM; in data set [2] it was 501 nM.

Regarding `O=C(NCCNc1nonc1C(=NO)Nc1ccc(F)c(Br)c1)c1ccc2c(c1)B(O)OCC2` [Compound 4, N-(2-((4-(N-(3-Bromo-4-fluorophenyl)-N′-hydroxycarbamimidoyl)-1,2,5-oxadiazol-3-yl)amino)ethyl)-1-hydroxy-3,4-dihydro-1H-benzo[c][1,2]oxaborinine-7-carboxamide], the IC50 is 50.1 nM at Recombinant human IDO1, 158 nM in data set [1], 100 nM in data set [2] and 1260 nM in data set [4]. For the same compound, in data set [3], the clearance worked out at 2 mL/min/kg.

With `O=C(NCCNc1nonc1C(=NO)Nc1ccc(F)c(Br)c1)Nc1ccc(B(O)O)cc1` [Compound 9], the IC50 on Recombinant human IDO1 is 31.6 nM; in data set [1], 100 nM; in data set [2], 31.6 nM; in data set [4], 63.1 nM. For the same compound, in data set [3], the clearance was found to be 238 mL/min/kg.

As for `O=C(NCCNc1nonc1C(=NO)Nc1ccc(F)c(Br)c1)c1cccc2c1B(O)OCC2` [Compound 1, N-(2-((4-(N-(3-bromo-4-fluorophenyl)-N′-hydroxycarbamimidoyl)-1,2,5-oxadiazol-3-yl)amino)ethyl)-1-hydroxy-3,4-dihydro-1H-benzo[c][1,2]oxaborinine-8-carboxamide], the IC50 at Recombinant human IDO1 was 100 nM; in data set [1], 100 nM; in data set [2] it was 126 nM; in data set [4], 158 nM. Also, the clearance in data set [3] is 0.8 mL/min/kg; in data set [5], 0.6 mL/min/kg.

`O=C(NCCNc1nonc1C(=NO)Nc1ccc(F)c(Br)c1)c1ccc2c(c1)COB2O` [Compound 8]: the IC50 on Recombinant human IDO1 was 79.4 nM; in data set [1], 158 nM; in data set [2], 50.1 nM; in data set [4], 79.4 nM. Besides, the clearance in data set [3] was 74.9 mL/min/kg.

Consider `CN(Cc1cccc2c1COB2O)C(=O)CNc1nonc1C(=NO)Nc1ccc(F)c(Br)c1` [Compound 5, 2-((4-(N-(3-Bromo-4-fluorophenyl)-N′-hydroxycarbamimidoyl)-1,2,5-oxadiazol-3-yl)amino)-N-((1-hydroxy-1,3-dihydrobenzo[c][1,2]oxaborol-4-yl)methyl)-N-methylacetamide 2,2,2-trifluoroacetate], for which the IC50 at Recombinant human IDO1 was 100 nM; in data set [1] it was 200 nM; in data set [2] it was 158 nM; in data set [4], 126 nM. The values for the clearance in data set [3] and in data set [5] were 2.8 mL/min/kg and 3.1 mL/min/kg, respectively.

As for `O=C(NCCNc1nonc1C(=NO)Nc1ccc(F)c(Br)c1)c1cccc2c1B(O)OC2` [Compound 6, N-(2-((4-(N-(3-Bromo-4-fluorophenyl)-N′-hydroxycarbamimidoyl)-1,2,5-oxadiazol-3-yl)amino)ethyl)-1-hydroxy-1,3-dihydrobenzo[c][1,2]oxaborole-7-carboxamide], the IC50 is 79.4 nM at Recombinant human IDO1, 158 nM in data set [1], 100 nM in data set [2] and 100 nM in data set [4]. Moreover, the clearance came out at 4.8 mL/min/kg in data set [3] and 7.1 mL/min/kg in data set [5].

In the case of `O=C(NCCNc1nonc1C(=NO)Nc1ccc(F)c(Br)c1)c1ccc2c(c1)B(O)OC=C2` [Compound 3, N-(2-((4-(N-(3-Bromo-4-fluorophenyl)-N′-hydroxycarbamimidoyl)-1,2,5-oxadiazol-3-yl)amino)ethyl)-1-hydroxy-1H-benzo[c][1,2]oxaborinine-7-carboxamide], the IC50 on Recombinant human IDO1 is 79.4 nM; in data set [1], 1260 nM; in data set [2], 316 nM; in data set [4] it was 2000 nM. In data set [3], this compound came in with a clearance of 0.8 mL/min/kg.

On to `NS(=O)(=O)NCCNc1nonc1C(=NO)Nc1ccc(F)c(Br)c1` [Compound 11, reference compound], for which the clearance came out at 50.6 mL/min/kg in data set [3] and 37.2 mL/min/kg in data set [5].

Turning to `ON=C(Nc1ccc(F)c(Br)c1)c1nonc1Nc1ccc(B(O)O)cc1` [Compound 10], the IC50 on Recombinant human IDO1 was 25.1 nM; in data set [1], 158 nM; in data set [2], 200 nM; in data set [4], 631 nM. In addition, in data set [3], the clearance came out at 220 mL/min/kg.
